Source: patent US20240365783A1, “HERBICIDAL MALONAMIDES” (BASF SE, priority 2021, published 2024)

Key:
Type in all cases: in vivo
[1] = system: Digitaria sanguinalis (DIGSA); test: greenhouse pre-emergence herbicidal test, DIGSA; conditions: pre-emergence method, application rate 0.250 kg/ha, scale from 0 to 100
Excerpt: (§1) The culture containers used were plastic flowerpots containing loamy sand with approximately 3.0% of humus as the substrate. The seeds of the test plants were sown separately for each species.
(§2) For the pre-emergence treatment, the active ingredients, which had been suspended or emulsified in water, were applied directly after sowing by means of finely distributing nozzles. The containers were irrigated gently to promote germination and growth and subsequently covered with transparent plastic hoods until the test plants had rooted. This cover caused uniform germination of the test plants, unless this had been impaired by the active ingredients.
(§3) Depending on the species, the test plants were kept at 10-25° C. or 20-35° C., respectively.
(§4) The test period extended over 2 to 4 weeks. During this time, the test plants were tended, and their response to the individual treatments was evaluated.
(§5) Evaluation was carried out using a scale from 0 to 100. 100 means no emergence of the test plants, or complete destruction of at least the aerial moieties, and 0 means no damage, or normal course of growth. A good herbicidal activity is given at values of 70 to <90 and a very good herbicidal activity is given at values of 90 to 100.
(§6) The test plants used in the greenhouse experiments were of the following species: […]

[2] = system: Lolium multiflorum (LOLMU); test: greenhouse pre-emergence herbicidal test, LOLMU; conditions: pre-emergence method, application rate 0.250 kg/ha, scale from 0 to 100
Excerpt: as §1, §2, §3, §4, §5, §6

[3] = system: Abutilon theophrasti (ABUTH); test: greenhouse pre-emergence herbicidal test, ABUTH; conditions: pre-emergence method, scale from 0 to 100
Excerpt: as §1, §2, §3, §4, §5, §6

[4] = system: Apera spica-venti (APESV); test: greenhouse pre-emergence herbicidal test, APESV; conditions: pre-emergence method, application rate 0.500 kg/ha, scale from 0 to 100
Excerpt: as §1, §2, §3, §4, §5, §6

[5] = system: Alopercurus myosuroides (ALOMY); test: greenhouse post-emergence herbicidal test, ALOMY; conditions: post-emergence method, application rate 0.500 kg/ha, scale from 0 to 100
Excerpt: as §1
(§7) For the post-emergence treatment, the test plants were first grown to a height of 3 to 15 cm, depending on the plant habit, and only then treated with the active ingredients which had been suspended or emulsified in water. For this purpose, the test plants were either sown directly and grown in the same containers, or they were first grown separately as seedlings and transplanted into the test containers a few days prior to treatment.
as §3, §4, §5, §6

Avena fatua (AVEFA) = test: greenhouse post-emergence herbicidal test, AVEFA; conditions: post-emergence method, application rate 0.500 kg/ha, scale from 0 to 100
Excerpt: as §1, §7, §3, §4, §5, §6

Setaria viridis (SETVI) = test: greenhouse post-emergence herbicidal test, SETVI; conditions: post-emergence method, application rate 0.500 kg/ha, scale from 0 to 100
Excerpt: as §1, §7, §3, §4, §5, §6

[6] = system: Abutilon theophrasti (ABUTH); test: greenhouse post-emergence herbicidal test, ABUTH; conditions: post-emergence method, application rate 0.250 kg/ha, scale from 0 to 100
Excerpt: as §1, §7, §3, §4, §5, §6

## CC(C)(C(=O)Nc1cccc(OC(F)(F)F)c1)C(=O)N[C@H]1C=C[C@@H](C(=O)O)C1 (relative stereo) [Compound 1.79]
[1]
  herbicidal activity against DIGSA: good (A good herbicidal activity is given at values of 70 to <90)

## CC(C)(C(=O)Nc1cc(Cl)cc(Cl)c1)C(=O)N[C@H]1C=C[C@@H](C(=O)O)C1 (relative stereo) [Compound 1.80]
[2]
  herbicidal activity against LOLMU: good (A good herbicidal activity is given at values of 70 to <90)

## COC(=O)CC(C)NC(=O)C(C)(C)C(=O)Nc1cc(Cl)cc(Cl)c1 (stereo not drawn) [Compound 1.1]
[3]; application rate 0.500 kg/ha
  herbicidal activity against ABUTH: good (A good herbicidal activity is given at values of 70 to <90)
[4]
  herbicidal activity against APESV: very good (a very good herbicidal activity is given at values of 90 to 100)
[5]
  herbicidal activity against ALOMY: very good (a very good herbicidal activity is given at values of 90 to 100)
Avena fatua (AVEFA)
  herbicidal activity against AVEFA: very good (a very good herbicidal activity is given at values of 90 to 100)
Setaria viridis (SETVI)
  herbicidal activity against SETVI: very good (a very good herbicidal activity is given at values of 90 to 100)

## COC(=O)C1C=CC(NC(=O)C(C)(C)C(=O)Nc2cccc(I)c2)C1 (stereo not drawn) [Compound 1.4]
[6]
  herbicidal activity against ABUTH: good (A good herbicidal activity is given at values of 70 to <90)

## CCc1cccc(NC(=O)C(C)(C)C(=O)NC(C)CCC(=O)OC)c1 (stereo not drawn) [Compound 1.19]
[3]; application rate 0.250 kg/ha
  herbicidal activity against ABUTH: good (A good herbicidal activity is given at values of 70 to <90)
